This passage reports melting point and IC50 results from article PMC9850473, “Three-Component Reaction of 3-Formyl-6-Methylchromone, Primary Amines, and Secondary Phosphine Oxides: A Synthetic and Mechanistic Study” (ACS Omega, 2022).

A short description of series [1]: In vitro cytotoxicity, fluorescent Resazurin assay, A549. In kind it is cell-based. Conditions: human, A549 lung adenocarcinoma cells, 72 h incubation, 1–30 μM, mean ± standard deviation. Background: The colour change of resazurin is a common sign of viable cells or microbes.
The nature of series [2]: In vitro cytotoxicity, fluorescent Resazurin assay, HL60. The settings on record: human, HL60 (HL-60) promyelocytic leukemia cells, In vitro cytotoxicity [IC50, μM] HL60, HL60 cells, 72 h incubation, 1–30 μM, mean ± standard deviation.
Description: (§1) The in vitro cytotoxicity of the several synthesized compounds was also investigated. […] During the measurements, the fluorescent Resazurin assay as described previously was applied.[19]
(§2) Cells were purchased from the American Type Culture Collection (ATCC, Manassas, Virginia, USA). Human lung adenocarcinoma A549 cells were maintained in Dulbecco’s modified Eagle’s medium (DMEM), while mouse fibroblast NIH/3T3 and human promyelocytic leukemia HL-60 cells were maintained in Roswell Park Memorial Institute 1640 medium (RPMI-1640) containing 10% FCS. Media were supplemented with 2 mM GlutaMAX, 100 U/mL penicillin, and 100 μg/mL streptomycin (Life Technologies, Carlsbad, California, USA). Cell cultures were maintained at 37 °C in a humidified incubator in an atmosphere of 5% CO2 (Sanyo, Japan).
(§3) Cytotoxicity of the synthesized molecules was determined on A549, NIH/3T3, and HL-60 cells using the fluorescent Resazurin assay as described previously.[19]
(§4) Briefly, cells (A549 and NIH/3T3: 6000, HL-60: 120.000 cells/well) were seeded into 96-well plates (Corning Life Sciences) in media and incubated overnight. Test compounds were dissolved in 3-fold amounts of dimethyl sulfoxide (DMSO). Cells were treated with an increasing concentration of test compounds (1–30 μM). […] Cell viability was determined after 72 h incubation. Resazurin reagent (Sigma-Aldrich) was added at a final concentration of 25 μg/mL. After a 2 h incubation for at 37 °C, 5% CO2, fluorescence (530 nm excitation/580 nm emission) was recorded on a multimode microplate reader (Cytofluor4000, PerSeptive Biosytems). Viability was calculated with relation to untreated control cells and blank wells containing media without cells.
Series [3] is described as follows: In vitro cytotoxicity, fluorescent Resazurin assay, NIH/3T3. Conditions: mouse, NIH/3T3 fibroblast cells.
Description: as §1, §2, §3, §4
The subject of series [4] is human promyelocytic leukemia (HL60) cell line. The experiment in a line: In vitro cytotoxicity, fluorescent Resazurin assay, HL60. The settings on record: read-out: In vitro cytotoxicity [IC50, μM] HL60, HL60 cells, 72 h incubation, 1–30 μM, mean ± standard deviation.
Description: as §1, §2, §3, §4

Consider `CCCCNC(c1coc2ccc(C)cc2c1=O)P(=O)(c1ccccc1)c1ccccc1` (stereo not shown) [1a, 3-[(Butylamino)(diphenylphosphoryl)methyl]-6-methyl-4H-chromen-4-one], for which the melting point lay in the range of 187 to 188 °C.
Turning to `Cc1ccc2occ(C(Nc3ccccc3)P(=O)(c3ccccc3)c3ccccc3)c(=O)c2c1` (stereo not shown) [1b, 3-[(Phenylamino)(diphenylphosphoryl)methyl]-6-methyl-4H-chromen-4-one], the melting point was 239 to 240 °C.
`COc1ccc(NC(c2coc3ccc(C)cc3c2=O)P(=O)(c2ccccc2)c2ccccc2)cc1` (stereo not shown) [1c, 3-[(4-Methoxyphenylamino)(diphenylphosphoryl)methyl]-6-methyl-4H-chromen-4-one] registered a melting point of 224 to 225 °C.
Same read-out and setting: to `Cc1ccc2occ(C(Nc3ccc(Cl)cc3)P(=O)(c3ccccc3)c3ccccc3)c(=O)c2c1` (stereo not shown) [1d, 3-[(4-Chlorophenylamino)(diphenylphosphoryl)methyl]-6-methyl-4H-chromen-4-one] belongs 235 to 236 °C; to `CCCCN/C=C1/C(=O)c2cc(C)ccc2OC1P(=O)(c1ccccc1)c1ccccc1` (stereo not shown) [2a, (Z)-3-[(Butylamino)methylene]-2-(diphenylphosphoryl)-6-methylchroman-4-one], 192 to 193 °C; to `Cc1ccc2c(c1)C(=O)/C(=C/Nc1ccccc1)C(P(=O)(c1ccccc1)c1ccccc1)O2` (stereo not shown) [2b, (Z)-3-[(Phenylamino)methylene]-2-(diphenylphosphoryl)-6-methylchroman-4-one], 243 to 244 °C.
`Cc1ccc2c(c1)C(=O)/C(=C/NC1CCCCC1)C(P(=O)(c1ccccc1)c1ccccc1)O2` (stereo not shown) [2c, (Z)-3-[(Cyclohexylamino)methylene]-2-(diphenylphosphoryl)-6-methylchroman-4-one] registered a melting point of 198 to 199 °C.
As to `Cc1ccc2c(c1)C(=O)/C(=C/NCc1ccccc1)C(P(=O)(c1ccccc1)c1ccccc1)O2` (stereo not shown) [2d, (Z)-3-[(Benzylamino)methylene]-2-(diphenylphosphoryl)-6-methylchroman-4-one], the melting point lay within 196 to 197 °C.
With `Cc1ccc2c(c1)C(=O)/C(=C/NC(c1ccccc1)c1ccccc1)C(P(=O)(c1ccccc1)c1ccccc1)O2` (stereo not shown) [2e, (Z)-3-[(Benzhydrylamino)methylene]-2-(diphenylphosphoryl)-6-methylchroman-4-one], the melting point is 182 to 183 °C. In series [1], this compound had an IC50 at 72 h of more than 30 µM. In series [2], inhibition was half-maximal at 9.91 ± 1.28 µM (IC50 at 72 h). In series [3], this compound showed an IC50 at 72 h of more than 30 µM.
Compound `Cc1ccc2c(c1)C(=O)/C(=C/NCCCO)C(P(=O)(c1ccccc1)c1ccccc1)O2` (stereo not shown) [2f, (Z)-3-[(Propanolamino)methylene]-2-(diphenylphosphoryl)-6-methylchroman-4-one] registered a melting point of 176 to 177 °C. This compound displayed an IC50 at 72 h in series [1] of more than 30 µM. Also, in series [2], the IC50 at 72 h was determined as 27.4 ± 1.13 µM. Besides, in series [3], the IC50 at 72 h is more than 30 µM.
`Cc1ccc2c(c1)C(=O)/C(=C/NCCO)C(P(=O)(c1ccccc1)c1ccccc1)O2` (stereo not shown) [2g, (Z)-3-[(Ethanolamino)methylene]-2-(diphenylphosphoryl)-6-methylchroman-4-one] gave a melting point of 181 to 182 °C. The same compound gave an IC50 at 72 h in series [1] of more than 30 µM. In addition, the IC50 at 72 h in series [2] was more than 30 µM. The midpoint of inhibition in series [3], the IC50 at 72 h, lay at 20.7 ± 1.02 µM.
`CCCCN/C=C1/C(=O)c2cc(C)ccc2OC1P(=O)(c1ccc(C)cc1)c1ccc(C)cc1` (stereo not shown) [7a, (Z)-3-[(Butylamino)methylene]-2-(di-p-tolylphosphoryl)-6-methylchroman-4-one] displayed a melting point of 186 to 187 °C.
With `Cc1ccc(P(=O)(c2ccc(C)cc2)C2Oc3ccc(C)cc3C(=O)/C2=C/NC2CCCCC2)cc1` (stereo not shown) [7b, (Z)-3-[(Cyclohexylamino)methylene]-2-(di-p-tolylphosphoryl)-6-methylchroman-4-one], the melting point is 205 to 206 °C.
As to `Cc1ccc(P(=O)(c2ccc(C)cc2)C2Oc3ccc(C)cc3C(=O)/C2=C/NCc2ccccc2)cc1` (stereo not shown) [7c, (Z)-3-[(Benzylamino)methylene]-2-(di-p-tolylphosphoryl)-6-methylchroman-4-one], the melting point was in the range of 198 to 199 °C.
For `CCCCN/C=C1/C(=O)c2cc(C)ccc2OC1P(=O)(c1cc(C)cc(C)c1)c1cc(C)cc(C)c1` (stereo not shown) [8a, (Z)-2-[Bis(3,5-dimethylphenyl)phosphoryl]-3-[(butylamino)methylene]-6-methyl-chroman-4-one], the melting point lay within 145 to 146 °C. Also, in series [1], the IC50 at 72 h was more than 30 µM. For the same compound, in series [2], the IC50 at 72 h is approximately 15 µM. For the same compound, the IC50 in series [4] stood at 14.8 ± 1.13 µM. Also, the IC50 at 72 h in series [3] is more than 30 µM.
Compound `Cc1cc(C)cc(P(=O)(c2cc(C)cc(C)c2)C2Oc3ccc(C)cc3C(=O)/C2=C/NC2CCCCC2)c1` (stereo not shown) [8c, (Z)-2-[Bis(3,5-dimethylphenyl)phosphoryl]-3-[(cyclohexylamino)methylene]-6-methylchroman-4-one] returned a melting point of 155 to 156 °C. Moreover, the IC50 at 72 h in series [1] is more than 30 µM. Further, the IC50 at 72 h in series [2] is approximately 15 µM. In series [3], the half-inhibitory concentration (IC50) at 72 h was more than 30 µM.
`Cc1cc(C)cc(P(=O)(c2cc(C)cc(C)c2)C2Oc3ccc(C)cc3C(=O)/C2=C/NCc2ccccc2)c1` (stereo not shown) [8d, (Z)-3-[(benzylamino)methylene]-2-[bis(3,5-dimethylphenyl)phosphoryl]-6-methylchroman-4-one]: the IC50 at 72 h is 18.5 ± 1.08 µM in series [1], approximately 15 µM in series [2] and 14.2 ± 1.12 µM in series [3]. Besides, the 50% inhibitory concentration (IC50) in series [4] was determined as 13.2 ± 1.32 µM.
Turning to `CCCCN/C=C1/C(=O)c2cc(C)ccc2OC1P(=O)(c1ccc2ccccc2c1)c1ccc2ccccc2c1` (stereo not shown) [9a, (Z)-3-[(Butylamino)methylene]-2-[di(naphthalen-2-yl)phosphoryl]-6-methylchroman-4-one], the melting point fell in the range of 192 to 193 °C.
`Cc1ccc2c(c1)C(=O)/C(=C/NC1CCCCC1)C(P(=O)(c1ccc3ccccc3c1)c1ccc3ccccc3c1)O2` (stereo not shown) [9b, (Z)-3-[(Cyclohexylamino)methylene]-2-[di(naphthalen-2-yl)phosphoryl]-6-methylchroman-4-one]: the melting point lay in the range of 171 to 172 °C.
Consider `CC(C)C[C@H](NC(=O)[C@H](Cc1ccccc1)NC(=O)c1cnccn1)B(O)O` [bortezomib, reference compound], for which inhibition in series [2] was half-maximal at 0.00742 µM (IC50 at 72 h).
`Cc1ccc2occ(C(O)P(=O)(c3ccccc3)c3ccccc3)c(=O)c2c1` (stereo not shown) [compound 3, 3-[(Diphenylphosphoryl)(hydroxy)methyl]-6-methyl-4H-chromen-4-one]: the melting point lay within 190 to 192 °C.
The same measure, in the same setting: the value for `Cc1ccc(P(=O)(c2ccc(C)cc2)C(Nc2ccccc2)c2coc3ccc(C)cc3c2=O)cc1` (stereo not shown) [compound 4, 3-[(Phenylamino)(di-p-tolylphosphoryl)methyl]-6-methyl-4H-chromen-4-one] was 245 to 246 °C; that for `Cc1cc(C)cc(P(=O)(c2cc(C)cc(C)c2)C(Nc2ccccc2)c2coc3ccc(C)cc3c2=O)c1` (stereo not shown) [compound 5, 3-{(Phenylamino)[bis(3,5-dimethylphenyl)phosphoryl]methyl}-6-methyl-4H-chromen-4-one] was 229 to 230 °C.
With `Cc1ccc2occ(C(Nc3ccccc3)P(=O)(c3ccc4ccccc4c3)c3ccc4ccccc4c3)c(=O)c2c1` (stereo not shown) [compound 6, 3-{(Phenylamino)[di(naphthalen-2-yl)phosphoryl]methyl}-6-methyl-4H-chromen-4-one], the melting point was in the range of 223 to 224 °C.

As a reminder, the melting point is the temperature, or range, at which the solid turns liquid. One may read the IC50 as the concentration needed to halve the response being measured.
